# Measured values: PubChem BioAssay (NCI)
# Several values for one entry are separate records, joined by “and”; a condition that tells them apart may be missing. Equal entries are not always repeated.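 How tested: cells in 96-well plates exposed to compound for 48 hours at five concentrations. The concentration for 50% growth inhibition is given as GI50. Definition used: TGI = concentration required for complete inhibition of growth.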
# System: MDA-MB-468 breast
# Assay: inhibition of tumour cell growth, NCI panel, 48 h
SMILES,GI50,TGI
NC(CSC(c1ccccc1)(c1ccccc1)c1ccc(Cl)cc1)C(=O)O (centres undefined),0.0819 µM,4.18 µM
Cc1ccc(N2CCN(C3=C(Cl)C(=O)c4ncccc4C3=O)CC2)cc1,1.49 µM,3.04 µM
COc1cc(NCCCCN=C(N)NC(N)=NC(C)C)c2ncccc2c1,0.106 µM,0.435 µM
CCCCCCCC/C=C/CCCCCCCC1=NCC[N+]1(CCO)CCO,1.78 µM,4.56 µM
Cc1cccc(Oc2nccc(-c3c(-c4ccc(F)cc4)ncn3C3CCNCC3)n2)c1C,2.95 µM,6.46 µM
CS(=O)CCCCCN=C=S (centres undefined),2.68 µM,9.94 µM
C=C(C)[C@@H]1CC[C@]2(C)[C@H](C(=O)C=C3[C@@H]4C[C@](C)(C(=O)N5CCN(C)CC5)CC[C@]4(C)CC[C@]32C)[C@@]1(C)CCC#N,5.92 µM,13.2 µM
CC1/C=C/C=C/C=C/C=C/C=C/C=C/C=C/C(O[C@@H]2O[C@H](C)[C@H](O)[C@@H](O)[C@@H]2N)CC(O)C(C(=O)O)C(O)CC(=O)CC(O)CC(O)CC(O)CC(=O)CCCC(=O)CC(=O)OC1C(C)CC(C)C(O)CC(=O)c1ccc(N)cc1 (some centres undefined),0.0492 µM and 0.223 µM,0.0989 µM and 0.723 µM
N#Cc1c(-c2ccc(Cl)cc2)n(O)c2ccccc12,1.63 µM,4.71 µM
CCCCCCCCCCCCCCCCCC1=NCCN1CS(=O)(=O)O,16.1 µM,33.8 µM
CCN(CC)CCCNc1cccc2c(SCc3ccccc3)ccnc12,1.88 µM,3.43 µM
COc1ccc(C(=O)c2ccc(OC)c(OC)c2OC)cc1,0.696 µM,9.94 µM
COC(=O)c1ccc2c(c1)nc(-c1cc3ccccc3[nH]c1=O)n2-c1cc(C(C)(C)C)[nH]n1,13.7 µM,> 100 µM
COc1ccc(Nn2c(SCC(=O)Nc3nc(-c4ccc(Cl)cc4)cs3)nc(C)c2C)cc1,0.574 µM,7.73 µM
CC(C)[C@@]12C[C@@H](OC(=O)[C@H]3CO3)[C@@](C)(O1)[C@@H]1CC[C@@H](C)[C@H]1[C@@H]2OC(=O)/C=C/c1ccccc1,13.9 µM,30.9 µM
Cc1cc2cc3cc(C)c(N(C)C)cc3nc2cc1N(C)C,0.8 µM,9.01 µM
CCN(CC)c1cc(/C=C/c2ccc(OC)c(OC)c2)nc2cc(F)c(F)cc12,2.49 µM,10.3 µM
CC(=O)Nc1ccc(Sc2ccc([N+](=O)[O-])o2)cc1,0.933 µM,2.81 µM
CN1CCCNc2c(c(=O)c2=O)NCCCN(C)CCCNc2c(c(=O)c2=O)NCCCN(C)CCCNc2c(c(=O)c2=O)NCCCN(C)CCCNc2c(c(=O)c2=O)NCCCN(C)CCCNc2c(c(=O)c2=O)NCCCN(C)CCCNc2c(c(=O)c2=O)NCCCN(C)CCCNc2c(c(=O)c2=O)NCCC1,2 µM,12 µM

SMILES,GI50,TGI
NCCCNc1nc2ccccc2c2c(=O)c3cc(C(F)(F)F)ccc3sc12,1.53 µM,2.99 µM
COc1cc(/C=C/c2cc(/C=C/c3ccc(O)c(OC)c3)n(-c3c(C)cccc3C)c(=O)n2)ccc1O,0.835 µM,3.61 µM
O=[N+]([O-])c1ccc(-c2nc(-c3ccccc3)c(-c3ccccc3)n2-c2ccccc2)cc1,3.77 µM,12.7 µM
CCC(C)n1cc(C)c2c(C(=O)NCc3c(C)cc(C)[nH]c3=O)cc(Br)cc21 (centres undefined),22.8 µM,> 100 µM
COc1ccccc1-n1c(-c2cc(O)ccc2C)cn2c3c(=O)[nH]c(=O)n(C)c3nc12,15.6 µM,> 100 µM
COc1cccc(C2C(C#N)=C(N)Oc3cc(N)ccc32)c1 (centres undefined),0.282 µM,0.987 µM
CN(C)c1ccc(/C=C(/NC(=O)c2ccccc2)c2nc3ccc(Cl)cc3[nH]2)cc1,20.5 µM,70.5 µM
Cc1nc2sccn2c(=O)c1CCN1CCC(=C(c2ccc(F)cc2)c2ccc(F)cc2)CC1,5.05 µM,19 µM
ClC1=C(Cl)C(Cl)=C(Cl)C1=C/C=C/c1ccccc1,0.186 µM,0.433 µM
CCOc1ccc([C@@H]2[C@@H](Oc3ccccc3)C(=O)N2c2cc(OC)c(OC)c(OC)c2)cc1,0.0459 µM,> 100 µM
CC(C)(C)c1nc2c(o1)C(=O)c1ccccc1C2=O,0.184 µM,0.564 µM
CCCCCCCC/C=C/CCCCCCCCC1=NCCN1CCO,10.3 µM,26.6 µM
C=C1C[C@](OC)([C@H](O)C(=O)N[C@@H](OC)[C@@H]2C[C@@H](O)C(C)(C)[C@@H](C[C@@H](COC)OC)O2)O[C@H](C)[C@@H]1C,0.000941 µM,0.00348 µM
NC(=NCCCOc1ccc(Cl)cc1)Nc1ccc(Cl)cc1,1.71 µM,3.78 µM
CC(=O)c1ccc(NC(=O)CSc2nnc(-c3cc(-c4ccc(C)cc4)nc4ccccc34)o2)cc1,3.54 µM,> 100 µM
CC(C)CCOc1ccc(-c2n[nH]c(C(F)(F)F)c2-c2cncc(C#N)c2)c(O)c1,1.01 µM,4.83 µM
COc1cc(C)c(-c2ccc(=O)c(OC)cc2C)c(OC)c1OC,> 100 µM and 14 µM,> 100 µM
CC(=O)N1CC(Nc2ccc(OC(F)(F)F)cc2)=CC1=O,0.662 µM,4.74 µM
